Results on twelve compounds are retold here after US11098090B2, “Mycobacteria tuberculosis chaperonin 60.1 peptides and uses thereof” (Revolo Biotherapeutics Limited, priority 2017, dated 2021).

The nature of data set [1]: Plasma stability at 37° C., mouse plasma. Type of data set: in vitro ADME. On the procedure: (§1) Plasma Stability in Mouse, Rat and Human Plasma at 37° C.
(§2) Plasma: mouse (C57 Black 6 Male), rat (Sprague Dawley) and human containing heparin as an anti-coagulant.
(§3) Plasma samples in duplicate were incubated with peptide at 3 μM in a 600 μl volume at 37° C. with shaking. 50 μl aliquots were withdrawn after 2, 5, 30, 60 and 120 mins and quenched into 150 μl of ice-cold methanol containing the internal standard (tolbutamide). Samples were stored at −20° C. for 2 hours to allow protein precipitation. Samples were then centrifuged at 2500×g and the resulting supernatants transferred to a 96 well plate for LC-MS/MS analysis. Thalf was calculated in all matrices for each peptide.

Data set [2] in a line: Plasma stability at 37° C., rat plasma. In kind it is in vitro ADME. On the procedure:
as §1, §2, §3

Data set [3] is described as follows: Plasma stability at 37° C., human plasma. In kind it is in vitro ADME. On the procedure:
as §1, §2, §3

Data set [4] can be described thus: Plasma stability, overall statements for mouse, rat and human plasma. In kind it is in vitro ADME. The following applies: for plasma stability / half-life (Th) compared with parent peptide SEQ ID NO: 17: rat and human plasma. On the procedure: as §1, §2, §3
Data set [5] concerns LPS induced lung neutrophil influx. The data set is described as follows: LPS mouse model of lung inflammation (BAL neutrophil count). In kind it is in vivo. The note with it: for efficacy against LPS induced lung neutrophil influx: 50 pg/mouse i.v.
Data set [6] deals with recruitment of eosinophils. The following applies: animal model of allergic airway inflammation; from WO2009106819; cited from earlier work.
The mark [7] stands for this setting: Table 7, same conditions as Example 3, read-out: Plasma half life Mouse.
Where [8] appears, read: Table 7, same conditions as Example 3, read-out: Plasma half life Rat.
The mark [9] stands for this setting: Table 7, same conditions as Example 3, read-out: Plasma half life Man.
Setting [10] is: Table 4, read-out: Plasma half life Mouse.
Setting [11] is: Table 4, read-out: Plasma half life Rat.
[12] abbreviates: Table 4, read-out: Plasma half life Man.

Entries after “also recorded” stand apart in the source; their conditions may differ. Where no end group is shown, it is not given here. A value given as a limit tells only on which side of the number the result lay.

As for `CC(=O)N[C@H](Cc1c[nH]cn1)C(=O)NCC(=O)N[C@H](CC(C)C)C(=O)N[C@H](CC(N)=O)C(=O)N[C@@H](C(=O)N[C@H](CC(N)=O)C(=O)N[C@@H](C(=O)N[C@H](CC(C)C)C(=O)N[C@H](CO)C(=O)N[C@H](Cc1ccc(O)cc1)C(=O)NCC(=O)N[C@H](CC(=O)O)C(N)=O)[C@H](C)O)C(C)C` [SEQ ID NO: 20, Ac-hGlnvntlsyGd-NH2], the results for the half-life in data set [1] (setting [7]), in data set [2] (setting [8]) and in data set [3] (setting [9]) were greater than 6 h, 3.03 h and greater than 6 h, respectively. In data set [4], the “plasma stability / half-life (Th) compared with parent peptide SEQ ID NO: 17” value is given as “enhanced plasma stability”.
As to “H-DGSVVVNKVSEL-NH2 [SEQ ID NO: 3, DGSVVVNKVSEL-NH2]”, the “efficacy against LPS induced lung neutrophil influx” value in data set [5] (dosed up to 60 mins prior to LPS challenge (FIG. 2)) and in data set [5] (dosed up to 120 mins post LPS challenge (FIG. 3)) was “efficacious” each time. In addition, the “efficacy in the LPS mouse model” value in data set [5] (dosed intravenously) is on record as “effective”.
Regarding `CC(C)C[C@@H]1NC(=O)CNC(=O)[C@H](Cc2c[nH]cn2)NC(=O)[C@H](CC(=O)O)NC(=O)CNC(=O)[C@H](Cc2ccc(O)cc2)NC(=O)[C@H](CO)NC(=O)[C@H](CC(C)C)NC(=O)[C@H]([C@@H](C)O)NC(=O)[C@H](CC(N)=O)NC(=O)[C@H](C(C)C)NC(=O)[C@H](CC(N)=O)NC1=O` [SEQ ID NO: 25, cyclic-HGLNVNTLSYGD-], the figures for the half-life in data set [1] (setting [7]), in data set [2] (setting [8]) and in data set [3] (setting [9]) were 0.167 h, 0.35 h and 0.75 h, respectively. In data set [4], the “plasma stability / half-life (Th) compared with parent peptide SEQ ID NO: 17” value was “did not improve plasma stability”.
For `CC(=O)N[C@H](CC(=O)O)C(=O)NCC(=O)N[C@H](Cc1ccc(O)cc1)C(=O)N[C@H](CO)C(=O)N[C@H](CC(C)C)C(=O)N[C@@H](C(=O)N[C@H](CC(N)=O)C(=O)N[C@@H](C(=O)N[C@H](CC(N)=O)C(=O)N[C@H](CC(C)C)C(=O)NCC(=O)N[C@H](Cc1c[nH]cn1)C(N)=O)C(C)C)[C@H](C)O` [SEQ ID NO: 19, Ac-dGysltnvnlGh-NH2] the same measures were greater than 6 h, greater than 6 h, greater than 6 h and “enhanced plasma stability”.
With `CC(C)C[C@H](NC(=O)CNC(=O)[C@H](N)Cc1c[nH]cn1)C(=O)N[C@@H](CC(N)=O)C(=O)N[C@H](C(=O)N[C@@H](CC(N)=O)C(=O)N[C@H](C(=O)N[C@@H](CC(C)C)C(=O)N[C@@H](CO)C(=O)N[C@@H](Cc1ccc(O)cc1)C(=O)NCC(=O)N[C@H](CC(=O)O)C(N)=O)[C@@H](C)O)C(C)C` [SEQ ID NO: 14, hGLNVNTLSYGd-NH2], the half-life (commonly the time needed for the level to fall by half in the phase considered) in data set [1] (setting [7]) was determined as 0.833 h; in data set [2] (setting [8]), 2.55 h; in data set [3] (setting [9]), 2.58 h.
On to `CC(C)C[C@H](NC(=O)CNC(=O)[C@@H](N)Cc1c[nH]cn1)C(=O)N[C@@H](CC(N)=O)C(=O)N[C@H](C(=O)N[C@@H](CC(N)=O)C(=O)N[C@H](C(=O)N[C@@H](CC(C)C)C(=O)N[C@@H](CO)C(=O)N[C@@H](Cc1ccc(O)cc1)C(=O)NCC(=O)N[C@@H](CC(=O)O)C(N)=O)[C@@H](C)O)C(C)C` [SEQ ID NO: 17, HGLNVNTLSYGD-NH2], for which the “effect on LPS induced lung neutrophil influx (number of neutrophils)” value in data set [5] (different doses (0.5, 5 or 50 pg/mouse)) is listed as “reduction in the number of neutrophils”. The half-life in data set [1] (Table 3, 37° C., peptide 3 μM, read-out: Plasma Half Life (Th) Mouse) worked out at 0.333 h; in data set [2] (Table 3, 37° C., peptide 3 μM, read-out: Plasma Half Life (Th) Rat), 0.717 h; in data set [3] (Table 3, 37° C., peptide 3 μM, read-out: Plasma Half Life (Th) Man) it was 1.2 h.
For the compound “H-GLNVNTLSYGDLAAD [SEQ ID NO: 23, GLNVNTLSYGDLAAD, reference compound]”, the half-life in data set [1] (setting [10]) is 1.03 h; in data set [2] (setting [11]), greater than 5.13 h; in data set [3] (setting [12]), greater than 5.62 h.
“H-DGSVVVNKVSELPAGHGLNVNTLSYGDLAAD [SEQ ID NO: 1, reference compound]”: the “inhibition of LPS induced lung neutrophil influx” value in data set [5] (dosed intravenously immediately prior to LPS challenge) is reported as “significant inhibition; also recorded: only demonstrates efficacy when dosed immediately prior to LPS challenge”. The “activity against LPS induced lung neutrophil influx” value in data set [5] (i.v., given at earlier (FIG. 1) or later (FIG. 4) time points than LPS challenge) is on record as “looses its activity”. Also, the recruitment of eosinophils result in data set [6] is given as “significantly reduce the recruitment of eosinophils”.
As for `CC(C)C[C@H](NC(=O)CNC(=O)[C@@H](N)Cc1c[nH]cn1)C(=O)N[C@@H](CC(N)=O)C(=O)N[C@H](C(=O)N[C@@H](CC(N)=O)C(=O)N[C@H](C(=O)N[C@@H](CC(C)C)C(=O)N[C@@H](CO)C(=O)N[C@@H](Cc1ccc(O)cc1)C(=O)NCC(=O)N[C@H](CC(=O)O)C(N)=O)[C@@H](C)O)C(C)C` [SEQ ID NO: 15, HGLNVNTLSYGd-NH2], the half-life in data set [1] (setting [7]) stood at 0.65 h; in data set [2] (setting [8]), 3.03 h; in data set [3] (setting [9]), 1.4 h.
For the compound H-SELPAGHGLNVNTLSYGDLAAD [SEQ ID NO: 4], the “in vivo efficacy in the mouse LPS lung inflammation model” value in data set [5] (0.5, 5 and 500 pg/dose (FIG. 7)) is listed as “maintained in vivo efficacy”. For the same compound, the half-life in data set [1] (Table 5, read-out: Plasma half-life Mouse) was greater than 6 h; in data set [2] (Table 5, read-out: Plasma half-life Rat) it was greater than 6 h; in data set [3] (Table 5, read-out: Plasma half-life Man) it was greater than 6 h. In addition, the “plasma half-life compared with fragment 3 (SEQ ID NO: 5)” value in data set [4] (rat and human plasma (Table 5 vs Table 4)) was “superior half-life”.
Regarding `CC(C)C[C@H](NC(=O)CNC(=O)[C@H](N)Cc1c[nH]cn1)C(=O)N[C@@H](CC(N)=O)C(=O)N[C@H](C(=O)N[C@@H](CC(N)=O)C(=O)N[C@H](C(=O)N[C@@H](CC(C)C)C(=O)N[C@@H](CO)C(=O)N[C@@H](Cc1ccc(O)cc1)C(=O)NCC(=O)N[C@@H](CC(=O)O)C(N)=O)[C@@H](C)O)C(C)C` [SEQ ID NO: 16, hGLNVNTLSYGD-NH2], the half-life in data set [1] (setting [7]) amounted to 0.583 h; in data set [2] (setting [8]), 3.33 h; in data set [3] (setting [9]), 1.85 h.
Turning to “H-SELPAGHGLNVNTLS [SEQ ID NO: 5, SELPAGHGLNVNTLS]”, the half-life is 0.2 h in data set [1] (setting [10]), 1.32 h in data set [2] (setting [11]) and 1.85 h in data set [3] (setting [12]).
